Reference: the supplement of paper PMC10477900

Experiments:
HCT116 [1] = settings: 72 h
Procedure: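 HCT116 control and MTA1-KO (CRISPR) HCT116 cells were seeded in 384-well plates (800 cells/well), treated 16 h later with 237 metabolism-related anticancer drugs at five doses (10 uM, 2 uM, 400 nM, 80 nM, 16 nM) for 72 h, two replicates; viability by CCK8. Values are % inhibition of viability relative to untreated cells, plus fitted IC50.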

HCT116 [2] = assay: viability inhibition vs untreated; higher = more cytotoxic; settings: 72 h

SMILES | IC50 (HCT116 [1]; genotype: MTA1-KO) | IC50 (HCT116 [1]; genotype: control) | viability inhibition (HCT116 [2]; genotype: MTA1-KO, 16 nM) | viability inhibition (HCT116 [2]; genotype: MTA1-KO, 80 nM) | viability inhibition (HCT116 [2]; genotype: MTA1-KO, 400 nM) | viability inhibition (HCT116 [2]; genotype: MTA1-KO, 2000 nM) | viability inhibition (HCT116 [2]; genotype: MTA1-KO, 10000 nM) | viability inhibition (HCT116 [2]; genotype: control, 16 nM) | viability inhibition (HCT116 [2]; genotype: control, 80 nM) | viability inhibition (HCT116 [2]; genotype: control, 400 nM) | viability inhibition (HCT116 [2]; genotype: control, 2000 nM) | viability inhibition (HCT116 [2]; genotype: control, 10000 nM)
NS(=O)(=O)c1cc2c(cc1Cl)NC(C(Cl)Cl)NS2(=O)=O (stereo unspecified) [Trichlormethiazide] | > 10 µM | > 10 µM | -29.5% | -30.5% | -28.4% | -24.3% | -25.6% | -19.9% | -23.8% | -25.7% | -14.7% | -2.52%
C[C@]12CC[C@H]3[C@@H](CC[C@@]45O[C@@H]4C(O)=C(C#N)C[C@]35C)[C@@H]1CC[C@@H]2O [Trilostane] | > 10 µM | > 10 µM | -17% | -18.6% | -14.1% | -30.8% | -28.2% | 8.35% | 7.91% | 2.11% | -10.9% | -4.61%
CC(C)[C@]12O[C@H]1[C@@H]1O[C@]13[C@]1(O[C@H]1C[C@H]1C4=C(CC[C@@]13C)C(=O)OC4)[C@@H]2O [Triptolide] | < 0.016 µM | < 0.016 µM | 58.4% | 92.8% | 88.9% | 90.8% | 92.2% | 67.7% | 105% | 90.1% | 89.5% | 91.8%
NS(=O)(=O)c1ccc(NC(=O)Nc2ccc(F)cc2)cc1 [U104] | > 10 µM | > 10 µM | -21.7% | -21.1% | -25.6% | -26.9% | -10.5% | -3.77% | -10.5% | -6.63% | -1.16% | 4.44%
N#C/C(=C\c1cn(-c2ccccc2)c2ccccc12)C(=O)O [UK5099] | > 10 µM | > 10 µM | 12.9% | -2.58% | -5.75% | -0.99% | 14% | 8.77% | 3.74% | 4.2% | 20.2% | 40%
NC(N)=O [Urea] | > 10 µM | > 10 µM | -19% | -12.8% | -10.1% | -15.4% | -12.3% | 5.26% | 1.82% | -7.36% | 3.6% | -3.54%
COc1cccc(-c2ccc(NC(=O)C3=C(C(=O)O)CCC3)c(F)c2)c1 [Vidofludimus] | 7.17 µM | 8.85 µM | 16.3% | 14.4% | 15.2% | 18.4% | 72.5% | 14.5% | 16.4% | 19.6% | 28.3% | 60.9%
CNC(=O)c1cccc(-c2ccc3c(N4CCOC[C@@H]4C)nc(N4CCOC[C@@H]4C)nc3n2)c1 [Vistusertib] | 0.189 µM | 0.319 µM | 16.2% | 29.8% | 63.1% | 83.3% | 76.2% | -6.57% | -15% | 45.6% | 74.4% | 69.9%
